# Key:
# Orp3-Orp4-Orp8 complex = molecular target: T1, Orp3-Orp4-Orp8 complex (Nitratidesulfovibrio vulgaris, UniProt Q72A93+Q72A94); assay: Fe-S cluster transfer from holo-MrpORP, Ni-NTA separation, UV-visible spectroscopy; type: binding; conditions: anaerobic, DTT; cluster type from sequence motifs of Orp3 and Orp4, distribution between chains not resolved
# T1 construct: gene DVU_2103; His-tagged Orp3 (pBMC6C3::2103His) co-purified with Orp4 and Orp8 from DvH, metal centres removed; with Orp8, dinitrogenase iron-molybdenum cofactor biosynthesis domain protein
# T1 sequence (Q72A94 1-287): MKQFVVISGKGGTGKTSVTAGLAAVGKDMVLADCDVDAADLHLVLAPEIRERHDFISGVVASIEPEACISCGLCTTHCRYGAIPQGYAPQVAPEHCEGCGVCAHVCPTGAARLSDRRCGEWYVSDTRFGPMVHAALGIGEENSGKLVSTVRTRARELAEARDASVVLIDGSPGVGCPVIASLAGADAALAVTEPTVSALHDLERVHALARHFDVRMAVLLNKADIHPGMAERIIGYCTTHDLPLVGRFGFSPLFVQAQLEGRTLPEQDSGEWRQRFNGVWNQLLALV
# T1 sequence (Q72A93 1-301): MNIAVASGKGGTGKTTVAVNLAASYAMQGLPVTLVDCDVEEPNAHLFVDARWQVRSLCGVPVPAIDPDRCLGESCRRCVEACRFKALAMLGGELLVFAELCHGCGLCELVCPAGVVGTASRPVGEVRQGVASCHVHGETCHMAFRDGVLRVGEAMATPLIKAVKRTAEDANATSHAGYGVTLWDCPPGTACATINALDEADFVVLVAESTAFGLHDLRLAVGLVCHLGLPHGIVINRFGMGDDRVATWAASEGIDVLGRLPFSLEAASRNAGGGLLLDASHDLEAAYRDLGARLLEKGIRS
# T1 sequence (Q72A89 1-119 partner): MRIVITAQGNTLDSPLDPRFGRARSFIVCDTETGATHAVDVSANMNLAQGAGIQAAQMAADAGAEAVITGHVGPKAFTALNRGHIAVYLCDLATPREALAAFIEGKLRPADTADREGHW
# MrpORP (Dde3202) = molecular target: T2, MrpORP (Dde3202) (Oleidesulfovibrio alaskensis, UniProt Q30WF0); assay: UV-visible spectroscopy after in vitro Fe-S reconstitution; type: binding; conditions: anaerobic, DTT, Fe2+ with cysteine/IscS; a second cluster in the Di-Nase domain also contributes
# T2 construct: gene Dde_3202; full length, His-tagged (pJF119-3202His), produced in E. coli TG1, isolated aerobically and reconstituted; 43 kDa; [4Fe-4S] proposed between two monomers
# T2 sequence (Q30WF0 1-415): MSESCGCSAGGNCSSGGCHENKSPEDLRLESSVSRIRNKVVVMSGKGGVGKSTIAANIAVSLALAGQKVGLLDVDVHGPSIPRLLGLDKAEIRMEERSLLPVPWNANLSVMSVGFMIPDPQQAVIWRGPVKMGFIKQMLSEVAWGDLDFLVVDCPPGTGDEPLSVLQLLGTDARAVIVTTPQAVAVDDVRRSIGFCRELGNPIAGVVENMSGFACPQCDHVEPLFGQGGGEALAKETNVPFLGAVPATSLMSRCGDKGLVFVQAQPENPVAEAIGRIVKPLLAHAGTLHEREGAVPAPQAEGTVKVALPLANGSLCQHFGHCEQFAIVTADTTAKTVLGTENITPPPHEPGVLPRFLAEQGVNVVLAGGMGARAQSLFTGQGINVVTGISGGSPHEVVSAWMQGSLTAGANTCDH
substance,measurement,setting,value
[4Fe-4S] cluster,A400/A280,Orp3-Orp4-Orp8 complex,0.42
same,A400/A280,MrpORP (Dde3202),0.3

# From article PMC6345978, “The bacterial MrpORP is a novel Mrp/NBP35 protein involved in iron-sulfur biogenesis” (Scientific Reports, 2019)
